Results published in US11452717B2, “Small molecule activators of nicotinamide phosphoribosyltransferase (NAMPT) and uses thereof” (Sanford Burnham Prebys Medical Discovery Institute, priority 2017, dated 2022).

Target: NAMPT enzyme (Homo sapiens (Human), UniProt P43490)
Test: Enzyme Assay and NMN Detection (NAMPT reaction, fluorescence detection of NMN)
Assay type: biochemical
Conditions: Table B-1; NAMPT activation, NMN formation
Procedure, shortened: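 Reaction in 50 mM HEPES pH 7.5, 5 mM MgCl2, 0.1% Prionex, 0.005% Tween 20, 1 mM TCEP at room temperature, with 16 nM NAMPT, 120 uM ATP, 5 uM nicotinamide, 6.25 uM PRPP, 0.04 U/ml pyrophosphatase for 2 h. Stopped with acetophenone/KOH then formic acid; NMN quantified by fluorescence (ex380/em460) against calibration curve.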

Chain of NAMPT enzyme (P43490 whole entry, species assumed): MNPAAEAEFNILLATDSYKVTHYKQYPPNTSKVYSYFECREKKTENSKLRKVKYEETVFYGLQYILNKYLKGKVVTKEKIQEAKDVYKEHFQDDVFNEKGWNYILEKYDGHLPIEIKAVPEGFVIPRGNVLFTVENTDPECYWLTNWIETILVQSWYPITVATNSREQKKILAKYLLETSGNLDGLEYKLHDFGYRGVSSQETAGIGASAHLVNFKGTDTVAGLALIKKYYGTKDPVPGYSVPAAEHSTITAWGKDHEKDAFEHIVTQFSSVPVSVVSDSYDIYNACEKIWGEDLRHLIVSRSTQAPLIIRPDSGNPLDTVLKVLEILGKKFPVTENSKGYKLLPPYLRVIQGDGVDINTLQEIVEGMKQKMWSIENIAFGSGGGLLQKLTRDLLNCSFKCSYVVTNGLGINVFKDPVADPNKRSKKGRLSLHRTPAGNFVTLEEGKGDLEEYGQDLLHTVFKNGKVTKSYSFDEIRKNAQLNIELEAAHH

Q: For O=C(NCc1cn[nH]c1)Nc1ccc(C(=O)Nc2ccccc2Cl)cc1 [4-(3-((1H-pyrazol-4-yl)methyl)ureido)-N-(2-chlorophenyl)benzamide], which EC50 is on record?
A: The EC50 was 100 to 2000 nM.

Q: COc1ccccc1NC(=O)c1ccc(NC(=O)NCc2cn[nH]c2)cc1 [4-(3-((1H-pyrazol-4-yl)methyl)ureido)-N-(2-methoxyphenyl)benzamide] was tested. Which EC50 did it give?
A: The EC50 was 100 to 2000 nM.

Q: How did the EC50 turn out when COc1cccc(NC(=O)c2ccc(NC(=O)NCc3cn[nH]c3)cc2)c1 [4-(3-((1H-pyrazol-4-yl)methyl)ureido)-N-(3-methoxyphenyl)benzamide] was run?
A: Its EC50 is 100 to 2000 nM.

Q: O=C(NCc1cn[nH]c1)Nc1ccc(C(=O)Nc2ccc(Cl)cc2)cc1 [4-(3-((1H-pyrazol-4-yl)methyl)ureido)-N-(4-chlorophenyl)benzamide] was tested. Which EC50 did it give?
A: Its EC50 is 100 to 2000 nM.

Q: Which EC50 does the source give for COc1ccc(NC(=O)c2ccc(NC(=O)NCc3cn[nH]c3)cc2)cc1 [4-(3-((1H-pyrazol-4-yl)methyl)ureido)-N-(4-methoxyphenyl)benzamide] here?
A: The EC50 was 100 to 2000 nM.

Same assay, conditions: Table B-2; NAMPT activation, NMN formation

Q: O=C(NCc1ccncc1)Nc1ccc(NS(=O)(=O)c2ccccc2Cl)cc1 [2-Chloro-N-[4-(3-pyridin-4-ylmethyl-ureido)-phenyl]-benzenesulfonamide] was tested. Which EC50 did it give?
A: The EC50 was less than 100 nM.

Q: For COc1ccccc1S(=O)(=O)Nc1ccc(NC(=O)NCc2ccncc2)cc1 [2-Methoxy-N-[4-(3-pyridin-4-ylmethyl-ureido)-phenyl]-benzenesulfonamide], which EC50 is on record?
A: The EC50 was 100 to 2000 nM.

Q: Which EC50 does the source give for COC(=O)c1ccccc1CNS(=O)(=O)c1ccc(NC(=O)NCc2ccncc2)cc1 [2-{[4-(3-Pyridin-4-ylmethyl-ureido)-benzenesulfonylamino]-methyl}-benzoic acid methyl ester] here?
A: The EC50 was less than 100 nM.

Q: O=C(NCc1ccncc1)Nc1cccc(C(=O)O)c1 [3-(3-(Pyridin-4-ylmethyl)ureido)benzoic acid] was tested. Which EC50 did it give?
A: The EC50 was greater than 20000 nM.

Q: For O=C(NCc1ccncc1)Nc1ccc(NS(=O)(=O)c2cccc(Cl)c2)cc1 [3-Chloro-N-[4-(3-pyridin-4-ylmethyl-ureido)-phenyl]-benzenesulfonamide], which EC50 is on record?
A: Its EC50 is less than 100 nM.

Q: For COc1cccc(S(=O)(=O)Nc2ccc(NC(=O)NCc3ccncc3)cc2)c1 [3-Methoxy-N-[4-(3-pyridin-4-ylmethyl-ureido)-phenyl]-benzenesulfonamide], which EC50 is on record?
A: Its EC50 is less than 100 nM.

Q: Which EC50 does the source give for COC(=O)c1cccc(CNS(=O)(=O)c2ccc(NC(=O)NCc3ccncc3)cc2)c1 [3-{[4-(3-Pyridin-4-ylmethyl-ureido)-benzenesulfonylamino]-methyl}-benzoic acid methyl ester] here?
A: Its EC50 is 100 to 2000 nM.

Q: For O=C(NCc1ccncc1)Nc1ccc(C(=O)NCCN2CCCC2)cc1 [4-(3-(Pyridin-4-ylmethyl)ureido)-N-(2-(pyrrolidin-1-yl)ethyl)benzamide], which EC50 is on record?
A: The EC50 was 2000 to 5000 nM.

Q: Which EC50 does the source give for O=C(NCc1ccncc1)Nc1ccc(C(=O)Nc2ccccc2OC(F)(F)F)cc1 [4-(3-(Pyridin-4-ylmethyl)ureido)-N-(2-(trifluoromethoxy)phenyl)benzamide] here?
A: The EC50 was 100 to 2000 nM.

Q: With Cc1cccc(NC(=O)c2ccc(NC(=O)NCc3ccncc3)cc2)c1 [4-(3-(Pyridin-4-ylmethyl)ureido)-N-(m-tolyl)benzamide] as the compound, how does the EC50 read?
A: The EC50 was 100 to 2000 nM.

Q: For Cc1ccccc1NC(=O)c1ccc(NC(=O)NCc2ccncc2)cc1 [4-(3-(Pyridin-4-ylmethyl)ureido)-N-(o-tolyl)benzamide], which EC50 is on record?
A: The EC50 was 100 to 2000 nM.

Q: For Cc1ccc(NC(=O)c2ccc(NC(=O)NCc3ccncc3)cc2)cc1 [4-(3-(Pyridin-4-ylmethyl)ureido)-N-(p-tolyl)benzamide], which EC50 is on record?
A: The EC50 was 2000 to 5000 nM.

Q: For O=C(NCc1ccncc1)Nc1ccc(C(=O)Nc2cccs2)cc1 [4-(3-(Pyridin-4-ylmethyl)ureido)-N-(thiophen-2-yl)benzamide], which EC50 is on record?
A: The EC50 was 2000 to 5000 nM.

Q: NC(=O)c1ccc(NC(=O)NCc2ccncc2)cc1 [4-(3-(Pyridin-4-ylmethyl)ureido)benzamide] was tested. Which EC50 did it give?
A: The EC50 was 5000 to 20000 nM.

Q: For O=C(NCc1ccncc1)Nc1ccc(C(=O)O)cc1 [4-(3-(Pyridin-4-ylmethyl)ureido)benzoic acid], which EC50 is on record?
A: Its EC50 is greater than 20000 nM.

Q: For O=C(NCc1ccncc1)Nc1ccc(C(=O)Nc2cccc(OC(F)(F)F)c2)cc1 [4-(3-(pyridin-4-ylmethyl)ureido)-N-(3-(trifluoromethoxy)phenyl)benzamide], which EC50 is on record?
A: The EC50 was 2000 to 5000 nM.

Q: For O=C(NCc1ccncc1)Nc1ccc(C(=O)Nc2ccc(OC(F)(F)F)cc2)cc1 [4-(3-(pyridin-4-ylmethyl)ureido)-N-(4-(trifluoromethoxy)phenyl)benzamide], which EC50 is on record?
A: Its EC50 is 100 to 2000 nM.

Q: With O=C(NCc1ccncc1)Nc1ccc(C(=O)Nc2cncnc2)cc1 [4-(3-(pyridin-4-ylmethyl)ureido)-N-(pyrimidin-5-yl)benzamide] as the compound, how does the EC50 read?
A: The EC50 was 100 to 2000 nM.

Q: O=C(NCc1ccncc1)Nc1ccc(C(=O)NC2CCOC2)cc1 (stereo not drawn) [4-(3-(pyridin-4-ylmethyl)ureido)-N-(tetrahydrofuran-3-yl)benzamide] was tested. Which EC50 did it give?
A: The EC50 was 5000 to 20000 nM.

Q: For O=C(NCc1ccncc1)Nc1ccc(S(=O)(=O)NC2CCCc3ccccc32)cc1 (stereo not drawn) [4-(3-Pyridin-4-ylmethyl-ureido)-N-(1,2,3,4-tetrahydro-naphthalen-1-yl)-benzenesulfonamide], which EC50 is on record?
A: Its EC50 is less than 100 nM.

Q: O=C(NCc1ccncc1)Nc1ccc(S(=O)(=O)NCCN2CCCC2)cc1 [4-(3-Pyridin-4-ylmethyl-ureido)-N-(2-pyrrolidin-1-yl-ethyl)-benzensulfonamide] was tested. Which EC50 did it give?
A: The EC50 was 2000 to 5000 nM.

Q: Which EC50 does the source give for O=C(NCc1ccncc1)Nc1ccc(S(=O)(=O)NCc2ccccc2OC(F)(F)F)cc1 [4-(3-Pyridin-4-ylmethyl-ureido)-N-(2-trifluoromethoxy-benzyl)-benzenesulfonamide] here?
A: The EC50 was less than 100 nM.

Q: How did the EC50 turn out when O=C(NCc1ccncc1)Nc1ccc(S(=O)(=O)NCc2ccccc2C(F)(F)F)cc1 [4-(3-Pyridin-4-ylmethyl-ureido)-N-(2-trifluoromethyl-benzyl)-benzenesulfonamide] was run?
A: The EC50 was 100 to 2000 nM.

Q: O=C(NCc1ccncc1)Nc1ccc(S(=O)(=O)NCc2cccc(OC(F)(F)F)c2)cc1 [4-(3-Pyridin-4-ylmethyl-ureido)-N-(3-trifluoromethoxy-benzyl)-benzenesulfonamide] was tested. Which EC50 did it give?
A: The EC50 was 100 to 2000 nM.

Q: For O=C(NCc1ccncc1)Nc1ccc(S(=O)(=O)NCc2cccc(C(F)(F)F)c2)cc1 [4-(3-Pyridin-4-ylmethyl-ureido)-N-(3-trifluoromethyl-benzyl)-benzenesulfonamide], which EC50 is on record?
A: The EC50 was 100 to 2000 nM.

Q: How did the EC50 turn out when O=C(NCc1ccncc1)Nc1ccc(S(=O)(=O)NCc2ccc(OC(F)(F)F)cc2)cc1 [4-(3-Pyridin-4-ylmethyl-ureido)-N-(4-trifluoromethoxy-benzyl)-benzenesulfonamide] was run?
A: The EC50 was 100 to 2000 nM.

Q: For O=C(NCc1ccncc1)Nc1ccc(S(=O)(=O)NCc2ccc(C(F)(F)F)cc2)cc1 [4-(3-Pyridin-4-ylmethyl-ureido)-N-(4-trifluoromethyl-benzyl)-benzenesulfonamide], which EC50 is on record?
A: The EC50 was 100 to 2000 nM.

Q: O=C(NCc1ccncc1)Nc1ccc(S(=O)(=O)NC2CCOC2)cc1 (stereo not drawn) [4-(3-Pyridin-4-ylmethyl-ureido)-N-(tetrahydro-furan-3-yl)-benzenesulfonamide] was tested. Which EC50 did it give?
A: The EC50 was 100 to 2000 nM.

Q: For Cc1cccc(NS(=O)(=O)c2ccc(NC(=O)NCc3ccncc3)cc2)c1 [4-(3-Pyridin-4-ylmethyl-ureido)-N-m-tolyl-benzenesulfonamide], which EC50 is on record?
A: Its EC50 is 100 to 2000 nM.

Q: For Cc1ccccc1NS(=O)(=O)c1ccc(NC(=O)NCc2ccncc2)cc1 [4-(3-Pyridin-4-ylmethyl-ureido)-N-o-tolyl-benzenesulfonamide], which EC50 is on record?
A: The EC50 was 100 to 2000 nM.

Q: For Cc1ccc(NS(=O)(=O)c2ccc(NC(=O)NCc3ccncc3)cc2)cc1 [4-(3-Pyridin-4-ylmethyl-ureido)-N-p-tolyl-benzenesulfonamide], which EC50 is on record?
A: Its EC50 is 100 to 2000 nM.

Q: How did the EC50 turn out when O=C(NCc1ccncc1)Nc1ccc(S(=O)(=O)Nc2ncccn2)cc1 [4-(3-Pyridin-4-ylmethyl-ureido)-N-pyrimidin-2-yl-benzenesulfonamide] was run?
A: The EC50 was 5000 to 20000 nM.

Q: How did the EC50 turn out when O=C(NCc1ccncc1)Nc1ccc(S(=O)(=O)NC2CCNC2)cc1 (stereo not drawn) [4-(3-Pyridin-4-ylmethyl-ureido)-N-pyrrolidin-3-yl-benzenesulfonamide] was run?
A: The EC50 was 5000 to 20000 nM.

Q: Which EC50 does the source give for O=C(NCc1ccncc1)Nc1ccc(S(=O)(=O)Nc2nccs2)cc1 [4-(3-Pyridin-4-ylmethyl-ureido)-N-thiazol-2-yl-benzenesulfonamide] here?
A: Its EC50 is 100 to 2000 nM.

Q: For O=C(NCc1ccncc1)Nc1ccc(S(=O)(=O)Nc2ccccc2Cl)cc1 [4-(3-pyridin-4-ylmethyl-ureido)-N-(2-chloro-phenyl)-benzenesulfonamide], which EC50 is on record?
A: Its EC50 is 100 to 2000 nM.

Same assay, conditions: Table B-3; NAMPT activation, NMN formation

Q: CCOC(=O)c1ccc(N2CCN(Cc3ccncc3)C2=O)cc1 [4-(2-Oxo-3-pyridin-4-ylmethyl-imidazolidin-1-yl)-benzoic acid ethyl ester] was tested. Which EC50 did it give?
A: Its EC50 is greater than 20000 nM.

Q: O=C(O)c1ccc(N2CCN(Cc3ccncc3)C2=O)cc1 [4-(2-oxo-3-pyridin-4-ylmethyl-imidazolidin-1-yl)-benzoic acid] was tested. Which EC50 did it give?
A: Its EC50 is greater than 20000 nM.

Q: With CCOC(=O)c1ccc(NC(=O)N(C)Cc2ccccc2)cc1 [4-(3-Benzyl-3-methyl-ureido)-benzoic acid ethyl ester] as the compound, how does the EC50 read?
A: The EC50 was greater than 20000 nM.

Same assay, conditions: Table B-4; NAMPT activation, NMN formation

Q: How did the EC50 turn out when O=C(NCc1cn[nH]c1)Nc1ccc(Nc2nc(-c3ccccc3F)cs2)cc1 [1-{4-[4-(2-Fluoro-phenyl)-thiazol-2-ylamino]-phenyl}-3-(1H-pyrazol-4-ylmethyl)-urea] was run?
A: Its EC50 is 100 to 2000 nM.

Q: With O=C(NCc1cn[nH]c1)Nc1ccc(Nc2nc(-c3cccc(Cl)c3)cs2)cc1 [1-{4-[4-(3-Chloro-phenyl)-thiazol-2-ylamino]-phenyl}-3-(1H-pyrazol-4-ylmethyl)-urea] as the compound, how does the EC50 read?
A: Its EC50 is 2000 to 5000 nM.

Q: O=C(NCc1cn[nH]c1)Nc1ccc(Nc2nc(-c3cccc(F)c3)cs2)cc1 [1-{4-[4-(3-Fluoro-phenyl)-thiazol-2-ylamino]-phenyl}-3-(1H-pyrazol-4-ylmethyl)-urea] was tested. Which EC50 did it give?
A: Its EC50 is 100 to 2000 nM.

Q: O=C(NCc1cn[nH]c1)Nc1ccc(Nc2nc(-c3ccc(Cl)cc3)cs2)cc1 [1-{4-[4-(4-Chloro-phenyl)-thiazol-2-ylamino]-phenyl}-3-(1H-pyrazol-4-ylmethyl)-urea] was tested. Which EC50 did it give?
A: Its EC50 is 100 to 2000 nM.

Q: How did the EC50 turn out when O=C(NCc1cn[nH]c1)Nc1ccc(Nc2nc(-c3ccc(F)cc3)cs2)cc1 [1-{4-[4-(4-Fluoro-phenyl)-thiazol-2-ylamino]-phenyl}-3-(1H-pyrazol-4-ylmethyl)-urea] was run?
A: Its EC50 is 100 to 2000 nM.
